From patent publication US10997871B2, “Contractile function measuring devices, systems, and methods of use thereof” (President and Fellows of Harvard College, priority 2014, dated 2021)

Experiments:
cardiac tissue [1] = settings: cited from earlier work
cardiac tissue [2] = assay: optogenetic muscle thin film contractile assay, frequency and dose-dependent response of drug-treated tissue; format: cell-based
From the text: The system 300 can incorporate the system 290. The system 300 can be substantially similar in structure and function to the systems discussed above, except for the distinctions noted herein. Therefore, like reference numbers represent like structures. The system 300 can include a lens 152 disposed above the platform 222 and a C-mount lens 302 (e.g., a 1× lens) disposed above the lens 152. The system 300 can further include a sensor 304 (e.g., a 100 frames per second complementary metal oxide semiconductor (CMOS) camera, or the like) disposed above the lens 302. The components 152, 302, 304 can be aligned along the vertical axis 164.
The system 300 can include mirror 306 (e.g., a mirror with an oblique angle), a filter 308 (e.g., an LP filter, such as 776LP), and a light source 310 aligned along an axis 312 substantially perpendicular to the vertical axis 164. Light imparted from the light source 310 can be directed by the mirror 306 at the tissue structures 224. The light can further be directed at the sensor 304. The system 300 provides a combination of an optogenetic tissue structure and an optical mapping system setup, including bright field microscopy for optogenetic tissue structures with the sensor 304 and red light illumination from the filter 308.
124 muscle thin films were tested on 15 chips or platforms using three harvests. The error bar indicates a standard error of mean and the shading indicates approximately 95% confidence limits. […] Thus, the independently paced optogenetic muscle thin films enable higher throughput assays to investigate the frequency-dependent response.
As an example, quinidine and verapamil (both frequency-dependent) were tested for frequency and dose-dependent response in cardiac tissue. In particular, optogenetic muscle thin films in a contractile assay were used to recapitulate frequency and dose dependent mechanical responses of drug-treated tissue. In particular, FIGS. 61 and 62 show the pacing frequency, change in spontaneous beating rate frequency, change in twitch stress, and change in maximum Dt/dt for quinidine and verapamil.

In the case of `C=C[C@H]1C[N@@]2CC[C@H]1C[C@@H]2[C@@H](O)c1ccnc2ccc(OC)cc12` [quinidine], the “effect on myocardial contractility” value (cardiac tissue [1]; when given in therapeutic doses, general statement) is listed as “does not directly affect myocardial contractility”.

For `COc1ccc(CCN(C)CCCC(C#N)(c2ccc(OC)c(OC)c2)C(C)C)cc1OC` (centres unmarked) [verapamil], the “effect on calcium handling” value (cardiac tissue [1]; general statement explaining the inotropic result) is given as “directly affects calcium handling”, the “1:1 coupling” value (cardiac tissue [2]; at a low frequency with relatively low concentration, optical pacing) is given as “low” and the “inotropic effect (twitch stress, contractility)” value (cardiac tissue [2]; comparison of verapamil with quinidine) is given as “stronger negative inotropic effect than quinidine”. The spontaneous beating rate (cardiac tissue [2]; drug-treated cardiac tissue) was “increase”.
